Paper PMC10349806 (Nature Communications, 2023)
Where “and” joins values, the source holds several entries; their conditions need not be identical. Equal entries are not always repeated.

Key:
PfCRT variant H123A = biological target: T1, PfCRT variant H123A (Plasmodium falciparum, UniProt Q9N623, A220S/H123A/I356T/K76T/M74I/N326S/N75E/Q271E/R371I); assay: CQ uptake assay, oocytes expressing H123A; format: cell-based
T1 sequence (Q9N623 1-424 M74I/N75E/K76T/H123A/A220S/Q271E/N326S/I356T/R371I): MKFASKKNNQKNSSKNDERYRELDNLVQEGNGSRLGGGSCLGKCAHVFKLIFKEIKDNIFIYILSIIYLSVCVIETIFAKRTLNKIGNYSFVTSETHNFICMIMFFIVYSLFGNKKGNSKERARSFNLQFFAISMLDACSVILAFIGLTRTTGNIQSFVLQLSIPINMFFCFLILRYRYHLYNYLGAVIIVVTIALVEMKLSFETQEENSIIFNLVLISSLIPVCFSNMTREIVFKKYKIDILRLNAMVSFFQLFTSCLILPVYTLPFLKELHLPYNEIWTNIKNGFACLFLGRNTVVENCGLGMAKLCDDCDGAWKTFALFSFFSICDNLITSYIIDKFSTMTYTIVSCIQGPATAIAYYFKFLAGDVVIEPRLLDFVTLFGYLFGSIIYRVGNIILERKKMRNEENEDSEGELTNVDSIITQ
Procedure: (§1) Site-directed mutagenesis of PfCRT^Dd2 was performed as described using the megaprimer method with overlap extension[21],[54]. The primer pairs used are listed in Supplementary Table 6. Please note that a codon-optimized and oocyte-adapted version of PfCRT^Dd2 was used[22] (Supplementary Fig. 16). The resulting DNA fragment was cloned into the SP64T expression vector and verified by sequencing.
(§2) Oocytes were obtained as described previously. Briefly, adult (>2 years old) female X. laevis frogs (NASCO) were anesthetized in a cooled solution of ethyl 3-amino benzoate methanesulfonate (0.1%, w/v), followed by a surgical removal of parts of the ovary. The ovary lobes were carefully dissected and small pieces of oocytes were incubated in Ca^2+-free ND96 buffer (96 mM NaCl, 2 mM KCl, 1 mM MgCl2 buffered with 5 mM HEPES/NaOH, pH 7.5) supplemented with collagenase D (0.1%, w/v; Roche), BSA (0.5%, w/v), and 9 mm Na2HPO4 at 18 °C for 14-16 h while gentle shaking. After incubation, the oocytes were carefully washed several times with ND96 buffer (96 mM NaCl, 2 mM KCl, 1.8 mM CaCl2, 1 mM MgCl2 buffered with 5 mM HEPES/NaOH, pH 7.5) supplemented with 100 mg l^−1 gentamycin). Defolliculated and healthy-looking stage V-VI oocytes were manually selected for RNA microinjection. The RNA was generated as following: The codon-optimized sequences of PfCRT variants were cloned into the pSP64T expression vector. After vector linearization using the restriction endonucleases BamHI or SalI (New England Biolabs), transcription was performed using the in vitro SP6 mMessage mMachine Kit (Ambion)[34]. The obtained RNA was kept at −80 °C and diluted with nuclease-free water to a concentration of 0.6 μg μl^−1. Precision-bore glass capillary tubes (3.5-inch glass capillaries; Drummond Scientific Co.) were pulled on a vertical puller (P-87 Flaming/Brown micropipette puller, Sutter Instrument Co.), graduated, and placed on a microinjector (Nanoject II Auto-Nanoliter Injector, Drummond Scientific Co.). 50 nl of nuclease-free water alone (control oocytes) or 50 nl of 0.6 μg μl^−1 RNA were injected under stereomicroscopic control. Injected oocytes were incubated for 46–72 h at 18 °C with twice-daily buffer changes before usage in experiments.
Drug uptake assays were performed as described previously[21],[22],[24],[34]. […] The direction of radio-labeled drug transport is here from the mostly acidic extracellular solution (pH 4.5 or 6.0, as indicated) into the oocyte cytosol (pH ∼ 7.2), which corresponds to the efflux of drug from the acidic digestive vacuole (pH 5.2) into the parasite cytoplasm (pH 7.2). The topology of PfCRT in the oolemma is such that both the N- and C-terminus face the extracellular milieu[3],[22]. In the parasite, the N- and C-terminus face the lumen of the digestive vacuole. […] For determination of the amount of drug uptake for each oocyte, the reaction medium was removed and the oocytes were washed three times with 2 ml of ice-cold ND96 buffer. Each oocyte was individually transferred to a scintillation vial containing 5% sodium dodecyl sulfate (200 μl) for lysis. […] Oocytes that were injected with water instead of RNA were analyzed in parallel, representing the uptake of a drug by diffusion and/or endogenous permeation pathways. […] The specific PfCRT-mediated uptake was determined by subtracting the corresponding background value measured in water-injected oocytes from that of PfCRT-expressing oocytes. […]

PfCRT variant N84A = assay: CQ uptake assay, oocytes expressing N84A; format: cell-based, Plasmodium falciparum
Procedure: as §1, §2
Drug uptake assays were performed as described previously[21],[22],[24],[34]. […] The direction of radio-labeled drug transport is here from the mostly acidic extracellular solution (pH 4.5 or 6.0, as indicated) into the oocyte cytosol (pH ∼ 7.2), which corresponds to the efflux of drug from the acidic digestive vacuole (pH 5.2) into the parasite cytoplasm (pH 7.2). The topology of PfCRT in the oolemma is such that both the N- and C-terminus face the extracellular milieu[3],[22]. In the parasite, the N- and C-terminus face the lumen of the digestive vacuole. […] For determination of the amount of drug uptake for each oocyte, the reaction medium was removed and the oocytes were washed three times with 2 ml of ice-cold ND96 buffer. Each oocyte was individually transferred to a scintillation vial containing 5% sodium dodecyl sulfate (200 μl) for lysis. […] Oocytes that were injected with water instead of RNA were analyzed in parallel, representing the uptake of a drug by diffusion and/or endogenous permeation pathways. The resulting value represents the “background“ level of drug accumulation in oocytes (in-depth discussion in[22]). The specific PfCRT-mediated uptake was determined by subtracting the corresponding background value measured in water-injected oocytes from that of PfCRT-expressing oocytes. In all cases, at least three separate experiments were performed on oocytes from different frogs (biological replicate), and for each condition in an experiment, measurements were made from 10 oocytes per treatment. For pH 5.5, 6.0, and 6.5, ND96 was buffered with 5 mM MES/Tris base.

[1] = N84A, 50 µM CQ, 1 h, mean ± SEM

Q: Which “Activity at pH 6.0” value (PfCRT variant H123A; H123A, 50 µM CQ, 1 h, mean ± SEM) does the source give for `CCN(CC)CCCC(C)Nc1ccnc2cc(Cl)ccc12` (centres unmarked) [CQ, chloroquine] here?
A: The value was 4.85 ± 0.43 pmol h-1 oocyte-1.

Q: What about the R-value (PfCRT variant H123A; H123A, CQ transport at pH 4.5 / pH 6.0) of the same compound?
A: Its R-value is 0.36 ± 0.09.

Q: And the “H123A transport activity pH 4.5” value (PfCRT variant H123A; pH 4.5, single replicates, Fig 1d left)?
A: The value was 1.12 pmol oocyte-1 h-1 and 2.16 pmol oocyte-1 h-1 and 1.35 pmol oocyte-1 h-1 and 2.48 pmol oocyte-1 h-1.

Q: What about the “H123A R-value” (PfCRT variant H123A; pH 4.5 vs pH 6.0, Fig 1d left) of the same compound?
A: Its value is 0.44 and 0.35 and 0.42 and 0.27 and 0.52.

Q: And the “H123A transport activity pH 6.0” value (PfCRT variant H123A; pH 6.0, single replicates, Fig 1d left)?
A: Its value is 6.18 pmol oocyte-1 h-1 and 3.21 pmol oocyte-1 h-1 and 5.14 pmol oocyte-1 h-1 and 4.96 pmol oocyte-1 h-1 and 4.77 pmol oocyte-1 h-1.

Q: What about the “Activity at pH 4.5” value (PfCRT variant N84A; [1]) of the same compound?
A: Its value is 1.41 ± 0.23 pmol h-1 oocyte-1.

Q: What about the “Activity at pH 6.0” value (PfCRT variant N84A; [1]) of the same compound?
A: The value was 3.24 ± 0.32 pmol h-1 oocyte-1.

Q: What about the R-value (PfCRT variant N84A; N84A, CQ transport at pH 4.5 / pH 6.0) of the same compound?
A: The R-value was 0.42 ± 0.04 and 0.42.

Q: What about the “N84A transport activity pH 4.5” value (PfCRT variant N84A; pH 4.5, individual replicates (Fig 6a)) of the same compound?
A: The value was 1.45 pmol oocyte-1 h-1 and 0.73 pmol oocyte-1 h-1 and 1.46 pmol oocyte-1 h-1 and 2.00 pmol oocyte-1 h-1.

Q: And the “N84A transport activity pH 6.0” value (PfCRT variant N84A; pH 6.0, individual replicates (Fig 6a))?
A: The value was 3.16 pmol oocyte-1 h-1 and 3.18 pmol oocyte-1 h-1 and 4.19 pmol oocyte-1 h-1.

Q: And the “N84A R-value” (PfCRT variant N84A; transport activity pH 4.5 relative to pH 6.0 (Fig 6a))?
A: The value was 0.46 and 0.30 and 0.48.
